PMC5078040 (Oncotarget, 2016)

Tests used:
CDK11 = molecular target: T1, CDK11 (Homo sapiens, UniProt Q9BWU1); test: KinomeScan; format: binding; conditions: 1uM
T1 construct: purchased DiscoveRx KINOMEscan

AURKA = molecular target: T2, AURKA (Homo sapiens, UniProt O14965); test: KinomeScan; format: binding; conditions: 1uM
T2 construct: purchased DiscoveRx KINOMEscan

RIOK3 = molecular target: T3, RIOK3 (Homo sapiens, UniProt O14730); test: KinomeScan; format: binding; conditions: 1uM
T3 construct: purchased DiscoveRx KINOMEscan

WEE1 = molecular target: T4, WEE1 (Homo sapiens, UniProt P30291); test: KinomeScan; format: binding; conditions: 1uM
T4 construct: purchased DiscoveRx KINOMEscan

RET(M918T) = molecular target: T5, RET(M918T) (Homo sapiens, UniProt P07949, M918T); test: KinomeScan; format: binding; conditions: 1uM
T5 construct: purchased DiscoveRx KINOMEscan

STK33 = molecular target: T6, STK33 (Homo sapiens, UniProt Q9BYT3); test: KinomeScan; format: binding; conditions: 1uM
T6 construct: purchased DiscoveRx KINOMEscan

[1] = molecular target: T7, ABL1(H396P)-nonphosphorylated (Homo sapiens, UniProt P00519, H396P); test: KinomeScan; format: binding; conditions: 1uM
T7 construct: purchased DiscoveRx KINOMEscan

FLT3(N841I) = molecular target: T8, FLT3(N841I) (Homo sapiens, UniProt P36888, N841I); test: KinomeScan; format: binding; conditions: 1uM
T8 construct: purchased DiscoveRx KINOMEscan

TXK = molecular target: T9, TXK (Homo sapiens, UniProt P42681); test: KinomeScan; format: binding; conditions: 1uM
T9 construct: purchased DiscoveRx KINOMEscan

CAMK2B = molecular target: T10, CAMK2B (Homo sapiens, UniProt Q13554); test: KinomeScan; format: binding; conditions: 1uM
T10 construct: purchased DiscoveRx KINOMEscan

MET = molecular target: T11, MET (Homo sapiens, UniProt P08581); test: KinomeScan; format: binding; conditions: 1uM
T11 construct: purchased DiscoveRx KINOMEscan

CAMK2A = molecular target: T12, CAMK2A (Homo sapiens, UniProt Q9UQM7); test: KinomeScan; format: binding; conditions: 1uM
T12 construct: purchased DiscoveRx KINOMEscan

DDR2 = molecular target: T13, DDR2 (Homo sapiens, UniProt Q16832); test: KinomeScan; format: binding; conditions: 1uM
T13 construct: purchased DiscoveRx KINOMEscan

LC3B II = test: Autophagy (western-blot); format: cell-based, human; conditions: 12 hours
From the text: Cells were then washed in PBS and lysed in cell lysis buffer and detected by western-blot using LC3B, GAPDH antibody (Cell signaling Technology).

RIPK4 = molecular target: T14, RIPK4 (Homo sapiens, UniProt P57078); test: KinomeScan; format: binding; conditions: 1uM
T14 construct: purchased DiscoveRx KINOMEscan

PIM3 = molecular target: T15, PIM3 (Homo sapiens, UniProt Q86V86); test: KinomeScan; format: binding; conditions: 1uM
T15 construct: purchased DiscoveRx KINOMEscan

NEK5 = molecular target: T16, NEK5 (Homo sapiens, UniProt Q6P3R8); test: KinomeScan; format: binding; conditions: 1uM
T16 construct: purchased DiscoveRx KINOMEscan

LYN = molecular target: T17, LYN (Homo sapiens, UniProt P07948); test: KinomeScan; format: binding; conditions: 1uM
T17 construct: purchased DiscoveRx KINOMEscan

WNK1 = molecular target: T18, WNK1 (Homo sapiens, UniProt Q9H4A3); test: KinomeScan; format: binding; conditions: 1uM
T18 construct: purchased DiscoveRx KINOMEscan

MUSK = molecular target: T19, MUSK (Homo sapiens, UniProt O15146); test: KinomeScan; format: binding; conditions: 1uM
T19 construct: purchased DiscoveRx KINOMEscan

MAP3K1 = molecular target: T20, MAP3K1 (Homo sapiens, UniProt Q13233); test: KinomeScan; format: binding; conditions: 1uM
T20 construct: purchased DiscoveRx KINOMEscan

CTK = molecular target: T21, CTK (Homo sapiens, UniProt P42679); test: KinomeScan; format: binding; conditions: 1uM
T21 construct: purchased DiscoveRx KINOMEscan

[2] = molecular target: T22, RSK2(Kin.Dom.1-N-terminal) (Homo sapiens, UniProt P51812); test: KinomeScan; format: binding; conditions: 1uM
T22 construct: RSK2(Kin.Dom.1-N-terminal); purchased DiscoveRx KINOMEscan

ACVR1 = molecular target: T23, ACVR1 (Homo sapiens, UniProt Q04771); test: KinomeScan; format: binding; conditions: 1uM
T23 construct: purchased DiscoveRx KINOMEscan

MKNK2 = molecular target: T24, MKNK2 (Homo sapiens, UniProt Q9HBH9); test: KinomeScan; format: binding; conditions: 1uM
T24 construct: purchased DiscoveRx KINOMEscan

GRK7 = molecular target: T25, GRK7 (Homo sapiens, UniProt Q8WTQ7); test: KinomeScan; format: binding; conditions: 1uM
T25 construct: purchased DiscoveRx KINOMEscan

NEK9 = molecular target: T26, NEK9 (Homo sapiens, UniProt Q8TD19); test: KinomeScan; format: binding; conditions: 1uM
T26 construct: purchased DiscoveRx KINOMEscan

PI3Kα = molecular target: T27, PI3Kα (Mus musculus, UniProt P42337); test: PI3Ks isoform in cell EC50 assay (AKT phosphorylation, Western Blotting); format: cell-based; conditions: NIH-3T3, 20ng/ml PDGF-BB, read-out: cellular EC50 PI3K Alpha
T27 construct: endogenous in cells; host or cells: NIH-3T3

PIK3CA(E542K) = molecular target: T28, PIK3CA(E542K) (Homo sapiens, UniProt P42336, E542K); test: KinomeScan; format: binding; conditions: 1uM
T28 construct: purchased DiscoveRx KINOMEscan

PRKG1 = molecular target: T29, PRKG1 (Homo sapiens, UniProt Q13976); test: KinomeScan; format: binding; conditions: 1uM
T29 construct: purchased DiscoveRx KINOMEscan

[3] = molecular target: T30, RSK4(Kin.Dom.2-C-terminal) (Homo sapiens, UniProt Q9UK32); test: KinomeScan; format: binding; conditions: 1uM
T30 construct: RSK4(Kin.Dom.2-C-terminal); purchased DiscoveRx KINOMEscan

MST4 = molecular target: T31, MST4 (Homo sapiens, UniProt Q9P289); test: KinomeScan; format: binding; conditions: 1uM
T31 construct: purchased DiscoveRx KINOMEscan

RET(V804M) = molecular target: T32, RET(V804M) (Homo sapiens, UniProt P07949, V804M); test: KinomeScan; format: binding; conditions: 1uM
T32 construct: purchased DiscoveRx KINOMEscan

[4] = molecular target: T33, ABL1(H396P)-phosphorylated (Homo sapiens, UniProt P00519, H396P); test: KinomeScan; format: binding; conditions: 1uM
T33 construct: purchased DiscoveRx KINOMEscan

EIF2AK1 = molecular target: T34, EIF2AK1 (Homo sapiens, UniProt Q9BQI3); test: KinomeScan; format: binding; conditions: 1uM
T34 construct: purchased DiscoveRx KINOMEscan

[5] = molecular target: T35, ABL1(Y253F)-phosphorylated (Homo sapiens, UniProt P00519, Y253F); test: KinomeScan; format: binding; conditions: 1uM
T35 construct: purchased DiscoveRx KINOMEscan

S6K phosphorylation = test: Signaling pathway effect examination (western blotting); format: cell-based, human; parameters: dose or concentration left out as unconfirmed; conditions: MOLM13, HT, Namalwa, MEC-1, MEC-2 cells
Experimental: The cells were collected and lysed, and cell lysates were analyzed by western blotting.

DYRK1A = molecular target: T36, DYRK1A (Homo sapiens, UniProt Q13627); test: KinomeScan; format: binding; conditions: 1uM
T36 construct: purchased DiscoveRx KINOMEscan

EPHB6 = molecular target: T37, EPHB6 (Homo sapiens, UniProt O15197); test: KinomeScan; format: binding; conditions: 1uM
T37 construct: purchased DiscoveRx KINOMEscan

T12 sequence (Q9UQM7 whole entry): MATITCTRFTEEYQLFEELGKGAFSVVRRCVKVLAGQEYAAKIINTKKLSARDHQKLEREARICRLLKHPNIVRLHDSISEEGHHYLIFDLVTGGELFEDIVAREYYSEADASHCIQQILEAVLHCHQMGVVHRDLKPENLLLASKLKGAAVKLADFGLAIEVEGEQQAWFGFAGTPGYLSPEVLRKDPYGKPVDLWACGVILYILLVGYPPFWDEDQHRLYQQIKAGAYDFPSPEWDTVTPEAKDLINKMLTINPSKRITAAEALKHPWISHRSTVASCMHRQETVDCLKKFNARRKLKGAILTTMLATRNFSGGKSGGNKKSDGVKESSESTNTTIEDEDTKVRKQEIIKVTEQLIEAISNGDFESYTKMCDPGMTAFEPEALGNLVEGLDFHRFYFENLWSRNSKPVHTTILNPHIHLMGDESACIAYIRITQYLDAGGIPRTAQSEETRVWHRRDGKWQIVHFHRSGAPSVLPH
T2 sequence (O14965 whole entry): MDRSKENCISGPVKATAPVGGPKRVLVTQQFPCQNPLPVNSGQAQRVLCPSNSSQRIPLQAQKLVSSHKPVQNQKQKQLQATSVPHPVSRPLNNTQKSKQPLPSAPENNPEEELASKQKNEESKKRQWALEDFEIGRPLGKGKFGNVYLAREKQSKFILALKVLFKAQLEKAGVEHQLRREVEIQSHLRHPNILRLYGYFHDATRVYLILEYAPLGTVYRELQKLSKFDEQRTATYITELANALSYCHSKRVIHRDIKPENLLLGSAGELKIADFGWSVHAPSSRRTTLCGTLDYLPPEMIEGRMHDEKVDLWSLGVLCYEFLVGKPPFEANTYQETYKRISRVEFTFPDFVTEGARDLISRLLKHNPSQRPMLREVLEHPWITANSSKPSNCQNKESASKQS
T14 sequence (P57078 whole entry): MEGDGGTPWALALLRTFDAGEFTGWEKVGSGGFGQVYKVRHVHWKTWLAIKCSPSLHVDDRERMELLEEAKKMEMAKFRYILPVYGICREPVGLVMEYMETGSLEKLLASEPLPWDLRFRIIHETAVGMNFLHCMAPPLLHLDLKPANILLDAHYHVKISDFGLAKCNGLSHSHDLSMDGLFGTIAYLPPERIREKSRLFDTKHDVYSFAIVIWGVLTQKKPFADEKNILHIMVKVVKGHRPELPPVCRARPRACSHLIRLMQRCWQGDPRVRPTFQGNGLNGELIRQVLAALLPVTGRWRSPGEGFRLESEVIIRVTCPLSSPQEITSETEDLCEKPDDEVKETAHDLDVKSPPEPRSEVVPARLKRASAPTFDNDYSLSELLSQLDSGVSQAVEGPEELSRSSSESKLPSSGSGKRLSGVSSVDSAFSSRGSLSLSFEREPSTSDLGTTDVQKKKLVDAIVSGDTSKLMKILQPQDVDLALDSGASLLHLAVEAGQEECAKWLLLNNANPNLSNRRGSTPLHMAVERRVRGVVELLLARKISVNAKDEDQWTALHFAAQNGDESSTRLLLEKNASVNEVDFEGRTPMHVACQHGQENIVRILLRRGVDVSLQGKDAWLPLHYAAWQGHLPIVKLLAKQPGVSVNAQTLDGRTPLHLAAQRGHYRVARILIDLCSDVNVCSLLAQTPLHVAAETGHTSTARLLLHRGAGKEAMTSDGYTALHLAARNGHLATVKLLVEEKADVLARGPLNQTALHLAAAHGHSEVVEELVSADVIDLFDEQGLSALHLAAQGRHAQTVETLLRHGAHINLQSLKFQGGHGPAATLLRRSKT
T16 sequence (Q6P3R8 whole entry): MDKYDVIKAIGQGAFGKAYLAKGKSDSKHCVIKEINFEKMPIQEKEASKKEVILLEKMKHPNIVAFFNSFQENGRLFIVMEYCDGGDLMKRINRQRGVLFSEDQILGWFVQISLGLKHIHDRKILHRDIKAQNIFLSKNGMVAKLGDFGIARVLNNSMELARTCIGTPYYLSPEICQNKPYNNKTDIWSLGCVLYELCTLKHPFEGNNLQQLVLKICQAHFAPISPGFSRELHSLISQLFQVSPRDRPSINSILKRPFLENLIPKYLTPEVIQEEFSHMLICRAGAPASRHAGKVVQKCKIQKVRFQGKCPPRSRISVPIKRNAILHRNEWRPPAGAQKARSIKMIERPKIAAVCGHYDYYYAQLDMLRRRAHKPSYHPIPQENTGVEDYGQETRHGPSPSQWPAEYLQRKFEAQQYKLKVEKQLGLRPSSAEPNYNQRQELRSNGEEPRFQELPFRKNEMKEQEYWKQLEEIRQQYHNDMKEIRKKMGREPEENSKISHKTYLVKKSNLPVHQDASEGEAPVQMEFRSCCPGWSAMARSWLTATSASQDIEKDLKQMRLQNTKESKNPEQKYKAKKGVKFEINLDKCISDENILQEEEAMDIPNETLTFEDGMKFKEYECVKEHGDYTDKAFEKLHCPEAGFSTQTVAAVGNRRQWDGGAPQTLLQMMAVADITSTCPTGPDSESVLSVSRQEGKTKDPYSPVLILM
T21 sequence (P42679 whole entry): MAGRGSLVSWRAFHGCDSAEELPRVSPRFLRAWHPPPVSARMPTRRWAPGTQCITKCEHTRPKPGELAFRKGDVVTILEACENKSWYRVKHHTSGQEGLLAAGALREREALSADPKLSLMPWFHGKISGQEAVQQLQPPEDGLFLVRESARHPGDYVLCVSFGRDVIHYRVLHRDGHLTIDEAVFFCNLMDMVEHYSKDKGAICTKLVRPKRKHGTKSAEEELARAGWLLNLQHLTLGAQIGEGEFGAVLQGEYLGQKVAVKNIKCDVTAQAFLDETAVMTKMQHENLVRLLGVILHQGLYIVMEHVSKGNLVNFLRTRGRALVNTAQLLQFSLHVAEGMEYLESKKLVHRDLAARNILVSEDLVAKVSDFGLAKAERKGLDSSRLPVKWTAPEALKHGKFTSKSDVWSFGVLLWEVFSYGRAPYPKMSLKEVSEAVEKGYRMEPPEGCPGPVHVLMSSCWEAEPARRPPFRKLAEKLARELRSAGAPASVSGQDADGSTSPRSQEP
T5 sequence (P07949 29-1114 M918T): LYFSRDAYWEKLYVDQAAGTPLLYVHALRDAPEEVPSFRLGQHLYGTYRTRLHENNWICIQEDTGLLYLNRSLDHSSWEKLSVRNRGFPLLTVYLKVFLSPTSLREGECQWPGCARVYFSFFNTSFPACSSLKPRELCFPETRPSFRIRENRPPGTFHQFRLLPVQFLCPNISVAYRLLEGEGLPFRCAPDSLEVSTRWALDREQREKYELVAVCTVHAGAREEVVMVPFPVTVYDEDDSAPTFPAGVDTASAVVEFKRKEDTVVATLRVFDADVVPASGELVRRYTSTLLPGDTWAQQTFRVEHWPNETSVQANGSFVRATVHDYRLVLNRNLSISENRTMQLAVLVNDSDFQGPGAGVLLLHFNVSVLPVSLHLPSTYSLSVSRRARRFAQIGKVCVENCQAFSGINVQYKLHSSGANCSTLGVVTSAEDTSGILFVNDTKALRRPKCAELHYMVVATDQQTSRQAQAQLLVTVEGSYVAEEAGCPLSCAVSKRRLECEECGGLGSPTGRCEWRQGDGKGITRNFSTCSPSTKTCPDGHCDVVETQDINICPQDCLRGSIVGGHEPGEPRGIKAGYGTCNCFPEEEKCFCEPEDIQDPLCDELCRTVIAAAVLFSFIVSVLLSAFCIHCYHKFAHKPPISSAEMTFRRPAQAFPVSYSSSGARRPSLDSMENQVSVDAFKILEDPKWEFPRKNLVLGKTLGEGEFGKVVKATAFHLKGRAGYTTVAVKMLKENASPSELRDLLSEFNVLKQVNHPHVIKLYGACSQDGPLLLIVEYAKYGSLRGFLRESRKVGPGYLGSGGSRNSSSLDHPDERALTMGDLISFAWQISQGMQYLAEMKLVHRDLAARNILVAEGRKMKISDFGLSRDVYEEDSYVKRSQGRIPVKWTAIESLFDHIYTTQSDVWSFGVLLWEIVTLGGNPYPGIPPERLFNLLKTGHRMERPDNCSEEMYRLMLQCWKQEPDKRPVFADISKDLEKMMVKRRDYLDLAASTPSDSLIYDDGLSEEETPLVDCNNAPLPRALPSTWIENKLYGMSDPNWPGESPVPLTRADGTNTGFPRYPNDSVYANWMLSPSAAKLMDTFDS
T13 sequence (Q16832 22-855): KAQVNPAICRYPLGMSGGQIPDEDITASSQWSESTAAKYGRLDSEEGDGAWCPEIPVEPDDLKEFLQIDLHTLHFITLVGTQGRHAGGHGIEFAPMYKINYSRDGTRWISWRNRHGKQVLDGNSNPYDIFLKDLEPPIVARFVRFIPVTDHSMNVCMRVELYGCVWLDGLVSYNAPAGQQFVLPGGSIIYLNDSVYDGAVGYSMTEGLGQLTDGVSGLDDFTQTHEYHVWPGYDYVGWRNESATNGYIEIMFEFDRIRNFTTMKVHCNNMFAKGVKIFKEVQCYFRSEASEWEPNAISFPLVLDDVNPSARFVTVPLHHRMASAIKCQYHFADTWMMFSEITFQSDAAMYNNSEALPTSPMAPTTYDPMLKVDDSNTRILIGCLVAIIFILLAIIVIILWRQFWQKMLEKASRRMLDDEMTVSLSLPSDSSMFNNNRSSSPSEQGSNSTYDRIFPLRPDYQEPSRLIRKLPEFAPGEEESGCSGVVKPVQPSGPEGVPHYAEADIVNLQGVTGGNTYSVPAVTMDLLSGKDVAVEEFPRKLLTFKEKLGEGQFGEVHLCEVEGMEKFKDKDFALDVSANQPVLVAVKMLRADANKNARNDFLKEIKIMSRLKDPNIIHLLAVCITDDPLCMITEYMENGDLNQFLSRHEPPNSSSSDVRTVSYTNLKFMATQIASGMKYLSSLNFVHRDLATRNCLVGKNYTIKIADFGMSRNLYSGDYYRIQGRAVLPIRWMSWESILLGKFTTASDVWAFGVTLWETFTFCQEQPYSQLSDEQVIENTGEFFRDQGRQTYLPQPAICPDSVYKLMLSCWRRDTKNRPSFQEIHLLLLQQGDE
T32 sequence (P07949 29-1114 V804M): as the sequence (P07949 29-1114 M918T) above, with V776M, T890M counted along it

Cc1nc(NC(=O)[C@@H](N)C(C)C)sc1-c1cnc(Cl)c(NS(=O)(=O)c2ccccc2)c1 [PI3KD-IN-015]
KinomeScan CDK11 (CDK11): 100
KinomeScan AURKA (AURKA): 93
KinomeScan RIOK3 (RIOK3): 96
KinomeScan WEE1 (WEE1): 100
KinomeScan RET(M918T) (RET(M918T)): 95
KinomeScan STK33 (STK33): 88
KinomeScan ABL1(H396P)-nonphosphorylated [1]: 100
KinomeScan FLT3(N841I) (FLT3(N841I)): 87
KinomeScan TXK (TXK): 100
KinomeScan CAMK2B (CAMK2B): 91
KinomeScan MET (MET): 100
KinomeScan CAMK2A (CAMK2A): 94
KinomeScan DDR2 (DDR2): 96
autophagy induction (LC3B II) (LC3B II; HT cells and MEC-1 cells): significantly increased the production of LC3B II
autophagy induction (LC3B II; MOLM-13 cell): no apparent autophagy induction
KinomeScan RIPK4 (RIPK4): 100
KinomeScan PIM3 (PIM3): 100
KinomeScan NEK5 (NEK5): 100
KinomeScan LYN (LYN): 100
KinomeScan WNK1 (WNK1): 100
KinomeScan MUSK (MUSK): 96
KinomeScan MAP3K1 (MAP3K1): 96
KinomeScan CTK (CTK): 93
KinomeScan RSK2(Kin.Dom.1-N-terminal) [2]: 100
KinomeScan ACVR1 (ACVR1): 100
KinomeScan MKNK2 (MKNK2): 98
KinomeScan GRK7 (GRK7): 97
KinomeScan NEK9 (NEK9): 100
EC50 (PI3Kα): > 3 µM
KinomeScan PIK3CA(E542K) (PIK3CA(E542K)): 5.4
KinomeScan PRKG1 (PRKG1): 89
KinomeScan RSK4(Kin.Dom.2-C-terminal) [3]: 99
KinomeScan MST4 (MST4): 86
KinomeScan RET(V804M) (RET(V804M)): 100
KinomeScan ABL1(H396P)-phosphorylated [4]: 78
KinomeScan EIF2AK1 (EIF2AK1): 100
KinomeScan ABL1(Y253F)-phosphorylated [5]: 100
S6K phosphorylation (S6K phosphorylation): significantly decreased
KinomeScan DYRK1A (DYRK1A): 89
KinomeScan EPHB6 (EPHB6): 100
